Assays:
[1] = tested on: APOB mRNA in liver; test: In vivo gene knockdown, liposomal siRNA formulation (Example 3), APOB siRNA; conditions: dose 3 mg/kg intravenously, CD1 mice, liver harvested three days later, real-time RT-PCR, GAPDH reference
Protocol: (§1) Each liposome formulation was made by mixing lipids of each lipomacrocycle compound (Table 1) combined with DSPC, DMG-PEG 2K, and cholesterol at the weight ratio of 3.85:0.42:0.21:0.79 in ethanol and siRNA in water. Then 5% dextrose water was added in each formulation before dosing to mice.
(§2) All procedures used in animal studies conducted were approved by the Institutional Animal Care and Use Committee (IACUC) and were consistent with local, state and federal regulations as applicable. Mice, rats, and rabbits received siRNA formulations intravenously at dose volume of 0.2 ml, 1 ml, or 10 ml, respectively. Animals were sacrificed 2 to 7 days later. Tissues were harvested and mRNA was isolated with Turbocapture kit (Qiagen) for analyzing change of gene expression with real-time RT-PCR method (SensiMix SYBR One-Step Kit, Bioline). Serum was harvested for analyzing blood chemistry.
(§3) CD1 mice were dosed with lipid particle (Table 1) or liposome (Table 2) siRNA formulation intravenousely and the different tissues were harvested three days later. The gene expression was analyzed with real-time RT-PCR method (for liver, GAPDH as reference gene; for lung and bone marrow, GAPDG and β-actin as reference genes).

[2] = tested on: SSB mRNA in liver; test: In vivo gene knockdown, lipid particle siRNA formulation (Example 4), SSB siRNA; conditions: lipid particles, dose 3.2 mg/kg intravenously, CD1 mice, liver harvested three days later, real-time RT-PCR, GAPDH reference
Protocol: Lipid Particle formulations were made by first mixed siRNA in an aqueous solution with DOTMA in organic solvent to produce a water-insoluble precipitate. After isolating and drying the precipitate, the precipitate was dissolved in chloroform and further mixed with other lipids as following: Each lipid particle formulation was consisting of 1 part DOTMA+siRNA complex/5 parts any lipomacrocycle compound (Table 1)/1.5 parts N 6-tetrakis (3-aminopropyl)-1,3-propanediamine cholesteryl carbamate/2.2 parts 1,2-dilinoleoyl-sn-glycero-3-phosphoethanolamine/10.08 parts cholesterol PEG-660/4.32 parts cholesterol PEG-660/0.6 parts cholesterol (weight/weight). All the components were dissolved in chloroform and mixed together. Then, the mixtures were dried overnight in Speedvac. The dried formulations were hydrated by adding in certain amount of 5% dextrose water before dosing to animals intravenously.
as §2, §3

[3] = tested on: SSB mRNA in liver; test: In vivo gene knockdown, liposomal siRNA formulation (Example 3), SSB siRNA; parameters: species or system CD1 mice; conditions: liposomal formulation, SSB siRNA, dose 3.2 mg/kg intravenously, CD1 mice, liver harvested three days later, real-time RT-PCR, GAPDH reference
Protocol: as §1, §2, §3

Row | Structure (SMILES) | Targeted mRNA remain in liver [1] | Targeted mRNA remain in liver [2] | Targeted mRNA remain in liver [3]
1 | CCCCCCCCCCCCOCC(O)CN(CCCN(CCCCN(CCCN(CC(O)COCCCCCCCCCCCC)CC(O)COCCCCCCCCCCCC)CCCN(CC(O)COCCCCCCCCCCCC)CC(O)COCCCCCCCCCCCC)CCCN(CC(O)COCCCCCCCCCCCC)CC(O)COCCCCCCCCCCCC)CC(O)COCCCCCCCCCCCC (stereo not shown) [Compound T4C10] | 0.82 | – | –
2 | CC(C)(C)c1ccc(C(=O)OCC(O)CN(CCCN(CCCCN(CCCN(CC(O)COC(=O)c2ccc(C(C)(C)C)cc2)CC(O)COC(=O)c2ccc(C(C)(C)C)cc2)CCCN(CC(O)COC(=O)c2ccc(C(C)(C)C)cc2)CC(O)COC(=O)c2ccc(C(C)(C)C)cc2)CCCN(CC(O)COC(=O)c2ccc(C(C)(C)C)cc2)CC(O)COC(=O)c2ccc(C(C)(C)C)cc2)CC(O)COC(=O)c2ccc(C(C)(C)C)cc2)cc1 (stereo not shown) [Compound T4C11] | 1.07 | – | –
3 | CC(C)(C)C(O)(CCc1ccc(Cl)cc1)CN(CCCN(CCCCN(CCCN(CC(O)(CCc1ccc(Cl)cc1)C(C)(C)C)CC(O)(CCc1ccc(Cl)cc1)C(C)(C)C)CCCN(CC(O)(CCc1ccc(Cl)cc1)C(C)(C)C)CC(O)(CCc1ccc(Cl)cc1)C(C)(C)C)CCCN(CC(O)(CCc1ccc(Cl)cc1)C(C)(C)C)CC(O)(CCc1ccc(Cl)cc1)C(C)(C)C)CC(O)(CCc1ccc(Cl)cc1)C(C)(C)C (stereo not shown) [Compound T4C18] | 1.56 | – | –
4 | CCCCCCCCCCCCC(O)CN1CCN(CC(O)CCCCCCCCCCCC)CCN(CC(O)CCCCCCCCCCCC)CCN(CC(O)CCCCCCCCCCCC)CC1 (stereo not shown) [Compound T2C6] | – | 0.86 | 0.66
5 | CCCCCCCCCCCCCCOCC(O)CN1CCN(Cc2ccccc2)CCN(CC(O)COCCCCCCCCCCCCCC)CCN(Cc2ccccc2)CC1 (stereo not shown) [Compound M6C1] | – | 0.64 | 0.98
